Assay results reported in PubChem BioAssay AID1259407 (Chemical Carcinogenesis Research Information System (CCRIS), 2018).
The source made the active and inactive calls. The rule behind the calls is not given here.

Test system: CCRIS mutagenicity, Ames/micronucleus/aberration tests
Experiment: CCRIS mutagenicity studies

Nc1ccc(Cl)cc1
mutagenic call (Test System: AMES SALMONELLA TYPHIMURIUM, Strain/Indicator: TA1535, Metabolic Activation: NONE, Method: STANDARD PLATE): inactive; negative | mutagenic call (Test System: AMES SALMONELLA TYPHIMURIUM, Strain/Indicator: TA1535, Metabolic Activation: RAT, LIVER, S-9, AROCLOR 1254, Method: PREINCUBATION): inactive; negative | mutagenic call (Test System: AMES SALMONELLA TYPHIMURIUM, Strain/Indicator: TA1535, Metabolic Activation: RAT, LIVER, S-9, AROCLOR 1254, Method: SPOT TEST): inactive; negative | mutagenic call (Test System: AMES SALMONELLA TYPHIMURIUM, Strain/Indicator: TA1535, Metabolic Activation: RAT, LIVER, S-9, AROCLOR 1254, Method: STANDARD PLATE): inactive; negative | mutagenic call (Test System: AMES SALMONELLA TYPHIMURIUM, Strain/Indicator: TA1535, Metabolic Activation: RAT, LIVER, S-9, SODIUM PHENOBARBITONE, Method: SPOT TEST): inactive; negative | mutagenic call (Test System: AMES SALMONELLA TYPHIMURIUM, Strain/Indicator: TA1535, Metabolic Activation: RAT, LIVER, S-9, SODIUM PHENOBARBITONE, Method: STANDARD PLATE): inactive; negative | mutagenic call (Test System: AMES SALMONELLA TYPHIMURIUM, Strain/Indicator: TA1537, Metabolic Activation: HAMSTER, LIVER, S-9, AROCLOR 1254, Method: PREINCUBATION): inactive; negative | mutagenic call (Test System: AMES SALMONELLA TYPHIMURIUM, Strain/Indicator: TA1537, Metabolic Activation: NONE, Method: PREINCUBATION): inactive; negative | mutagenic call (Test System: AMES SALMONELLA TYPHIMURIUM, Strain/Indicator: TA1537, Metabolic Activation: NONE, Method: SPOT TEST): inactive; negative | mutagenic call (Test System: AMES SALMONELLA TYPHIMURIUM, Strain/Indicator: TA1537, Metabolic Activation: NONE, Method: STANDARD PLATE): inactive; negative | mutagenic call (Test System: AMES SALMONELLA TYPHIMURIUM, Strain/Indicator: TA1537, Metabolic Activation: RAT, LIVER, S-9, AROCLOR 1254, Method: PREINCUBATION): inactive; negative | mutagenic call (Test System: AMES SALMONELLA TYPHIMURIUM, Strain/Indicator: TA1537, Metabolic Activation: RAT, LIVER, S-9, AROCLOR 1254, Method: SPOT TEST): inactive; negative | mutagenic call (Test System: AMES SALMONELLA TYPHIMURIUM, Strain/Indicator: TA1537, Metabolic Activation: RAT, LIVER, S-9, AROCLOR 1254, Method: STANDARD PLATE): inactive; negative | mutagenic call (Test System: AMES SALMONELLA TYPHIMURIUM, Strain/Indicator: TA1537, Metabolic Activation: RAT, LIVER, S-9, SODIUM PHENOBARBITONE, Method: SPOT TEST): inactive; negative | mutagenic call (Test System: AMES SALMONELLA TYPHIMURIUM, Strain/Indicator: TA1537, Metabolic Activation: RAT, LIVER, S-9, SODIUM PHENOBARBITONE, Method: STANDARD PLATE): inactive; negative | mutagenic call (Test System: AMES SALMONELLA TYPHIMURIUM, Strain/Indicator: TA1538, Metabolic Activation: NONE, Method: SPOT TEST): inactive; negative | mutagenic call (Test System: AMES SALMONELLA TYPHIMURIUM, Strain/Indicator: TA1538, Metabolic Activation: NONE, Method: STANDARD PLATE): inactive; negative | mutagenic call (Test System: AMES SALMONELLA TYPHIMURIUM, Strain/Indicator: TA1538, Metabolic Activation: RAT, LIVER, S-9, AROCLOR 1254, Method: SPOT TEST): inactive; negative | mutagenic call (Test System: AMES SALMONELLA TYPHIMURIUM, Strain/Indicator: TA1538, Metabolic Activation: RAT, LIVER, S-9, AROCLOR 1254, Method: STANDARD PLATE): inactive; negative | mutagenic call (Test System: AMES SALMONELLA TYPHIMURIUM, Strain/Indicator: TA1538, Metabolic Activation: RAT, LIVER, S-9, SODIUM PHENOBARBITONE, Method: SPOT TEST): inactive; negative | mutagenic call (Test System: AMES SALMONELLA TYPHIMURIUM, Strain/Indicator: TA1538, Metabolic Activation: RAT, LIVER, S-9, SODIUM PHENOBARBITONE, Method: STANDARD PLATE): inactive; negative | mutagenic call (Test System: E. COLI, Strain/Indicator: WP2 UVRA(P), Metabolic Activation: NONE, Method: STANDARD PLATE): inactive; negative | mutagenic call (Test System: E. COLI, Strain/Indicator: WP2 UVRA, Metabolic Activation: NONE, Method: FLUCTUATION TEST): inactive; negative | mutagenic call (Test System: E. COLI, Strain/Indicator: WP2 UVRA, Metabolic Activation: NONE, Method: STANDARD PLATE): inactive; negative | mutagenic call (Test System: MOUSE LYMPHOMA, Strain/Indicator: L5178Y (TK+/TK-), Metabolic Activation: NONE, Method: SUSPENSION/PLATE): active; positive | mutagenic call (Test System: MOUSE LYMPHOMA, Strain/Indicator: L5178Y (TK+/TK-), Metabolic Activation: RAT, LIVER, S-9, AROCLOR 1254, Method: SUSPENSION/PLATE): active; positive | mutagenic call (Test System: Mouse lymphoma, Strain/Indicator: L5178Y (tk+/tk-), Metabolic Activation: None, Method: Suspension/plate): active; equivocal (previous evaluation positive) | mutagenic call (Test System: Mouse lymphoma, Strain/Indicator: T5178Y (tk+/tk-), Metabolic Activation: Rat, Liver, S-9, Aroclor 1254, Method: Suspension/plate): active; inconclusive (previous evaluation positive)
